Experimental data as given in patent US9107865B2, “Methods for producing oocysts” (Zoetis Services LLC, priority 2001, dated 2015).
Like-named read-outs stand apart in the source and are kept apart here.

Tests used:
Scopulariopsis brumptii = test: Fungistatic or fungicidal properties of reagents (TSB flasks, then MEA plates); type: cell-based; conditions: for Growth on MEA plates (Day 14): 1 mL of flask plated on day 28 onto MEA plate, 14 days; for Growth on MEA plates (Day 14) / Growth in TSB Flasks (Day 28): room temperature; for Growth in TSB Flasks (Day 28): TSB flasks inoculated with fungal stock, 28 days; for fungistatic / fungicidal assessment: flask and plate tests taken together; for Growth in TSB Flasks (Day 28): key: −: no growth was observed; +: growth was observed; for Growth on MEA plates (Day 14): key: −: no growth was observed; +: growth was observed
Description: An experiment was conducted to assess the fungistatic or fungicidal properties of the reagents used in the collection and sporulation medium described in Example 3. Initial sterility tests were performed using trypticase soy broth (TSB). A fungal stock was created by suspending fungal scrapings from a Scopulariopsis brumptii stock culture into 25 mL PBS and filtering this material through a coarse Swinney filter (˜100 μm). Two hundred […] of this fungal stock was inoculated into three TSB flasks for treatments (Trt) 2-11.
Treatments evaluated various of the components of the collection/sporulation/sanitization medium described in Example 3, either alone or in combination. Sodium propionate was also tested in addition to propionic acid. Treatments were evaluated at room temperature for 28 days; then, on day 28 of incubation, one mL of each replicate flask for all treatments was plated onto a malt extract agar (MEA) plate with chloramphenicol (50 μg/mL) and penicillin-G (100 U/mL) and incubated at room temperature for 14 days.

[1] = test system: Extraneous agents in master seed; test: 9CFR 113.55 purity test after sanitization of oocysts; conditions: sanitized E. maxima oocysts
Description: (§1) Two experimental batches of E. maxima oocysts were prepared (Run A and Run B). Each batch was purified using sieving and flotation procedures. Each batch was then split and two methods of sanitization were tested (sodium hypochlorite and hydrogen peroxide with citric acid and propionic acid). Samples from each test were subjected to several purity tests including 9CFR tests and two PCR methods for virus detection.

mycoplasma = test: 9CFR 113.28 purity test after sanitization of oocysts; conditions: sanitized E. maxima oocysts
Description: (§2) An experiment was performed to investigate the utility of the sporulation medium described in Example 3 as a sanitization reagent. E. maxima oocysts were produced in broilers and purified using a density flotation technique. Oocysts were sporulated for 72 h using 10% citric acid, 0.25% propionic acid, 0.75% hydrogen peroxide, and 1 mL/L Antifoam A. After sporulation, the oocysts were centrifuged and resuspended in sterile-filtered sporulation medium (10% citric acid, 0.25% propionic acid, 0.75% hydrogen peroxide, 1 mL/L Antifoam A) and incubated overnight at room temperature with stirring. After sanitization, buffer exchange was accomplished via diafiltration using 200 mM potassium phosphate, pH 7, followed by PBS without preservatives. The bulk sample was stored in glass bottles approximately one-third full at 4° C. Subsamples of the final product were sent to a commercial testing laboratory for purity tests according to U.S. Department of Agriculture (USDA) guidelines.
as §1

[2] = test system: Reticuloendothelial Virus; test: PCR virus detection after sanitization of oocysts; conditions: sanitized E. maxima oocysts
Description: as §1

[3] = test system: Chicken Infectious Anemia Virus; test: PCR virus detection after sanitization of oocysts; conditions: sanitized E. maxima oocysts
Description: as §1

avian lymphoid leukosis = conditions: sanitized E. maxima oocysts
Description: E. maxima oocysts were produced in broilers and purified using a density flotation technique. […] After sanitization, buffer exchange was accomplished via diafiltration using 200 mM potassium phosphate, pH 7, followed by PBS without preservatives. The bulk sample was stored in glass bottles approximately one-third full at 4° C. Subsamples of the final product were sent to a commercial testing laboratory for purity tests according to U.S. Department of Agriculture (USDA) guidelines.

[4] = test system: extraneous viable bacteria and fungi; test: 9CFR 113.27 purity test after sanitization of oocysts; conditions: sanitized E. maxima oocysts
Description: as §2, §1

salmonella = test: 9CFR 113.30 purity test after sanitization of oocysts; conditions: sanitized E. maxima oocysts
Description: as §2, §1

hemagglutinating virus = test: 9CFR 113.34 purity test after sanitization of oocysts; conditions: sanitized E. maxima oocysts
Description: as §2, §1

CCC(=O)O [Trt 4, propionic acid]
Growth on MEA plates (Day 14) (Scopulariopsis brumptii): +
Growth in TSB Flasks (Day 28) (Scopulariopsis brumptii): −
fungistatic / fungicidal assessment (Scopulariopsis brumptii): fungistatic

CCC(=O)[O-].[Na+] [Trt 10, sodium propionate]
Growth on MEA plates (Day 14) (Scopulariopsis brumptii): +
Growth in TSB Flasks (Day 28) (Scopulariopsis brumptii): +

[Na+].[O-]Cl [Hypochlorite, sodium hypochlorite]
9CFR 113.55 Extraneous agents in master seed ([1]; Example 6, Run A): Negative
9CFR 113.55 Extraneous agents in master seed ([1]; Example 6, Run B): Negative
9CFR 113.28 Detection of mycoplasma (mycoplasma; Example 6, Run A): Negative
9CFR 113.28 Detection of mycoplasma (mycoplasma; Example 6, Run B): Negative
Reticuloendothelial Virus by PCR ([2]; Example 6, Run A): Negative
Reticuloendothelial Virus by PCR ([2]; Example 6, Run B): Negative
Chicken Infectious Anemia Virus by PCR ([3]; Example 6, Run A): Negative
Chicken Infectious Anemia Virus by PCR ([3]; Example 6, Run B): Negative
9CFR 113.31 Detection of avian lymphoid leucosis (avian lymphoid leukosis; Example 6, Run A): Negative
9CFR 113.31 Detection of avian lymphoid leucosis (avian lymphoid leukosis; Example 6, Run B): Negative
9CFR 113.27 Detection of extraneous viable bacteria and fungi in live vaccine ([4]; Example 6, Run A): Negative
9CFR 113.27 Detection of extraneous viable bacteria and fungi in live vaccine ([4]; Example 6, Run B): Negative
9CFR 113.30 Detection of salmonella (salmonella; Example 6, Run A): Negative
9CFR 113.30 Detection of salmonella (salmonella; Example 6, Run B): Negative
9CFR 113.34 Detection of hemagglutinating virus (hemagglutinating virus; Example 6, Run A): Negative
9CFR 113.34 Detection of hemagglutinating virus (hemagglutinating virus; Example 6, Run B): Negative

O=C(O)CC(O)(CC(=O)O)C(=O)O [Trt 5, citric acid]
Growth on MEA plates (Day 14) (Scopulariopsis brumptii): −
Growth in TSB Flasks (Day 28) (Scopulariopsis brumptii): −

OO [Trt 3, hydrogen peroxide]
Growth on MEA plates (Day 14) (Scopulariopsis brumptii): −
Growth in TSB Flasks (Day 28) (Scopulariopsis brumptii): −

CCC(=O)[O-].[Na+] [sodium propionate]
fungistatic / fungicidal assessment (Scopulariopsis brumptii): did not inhibit fungal growth
